Activity calls are given as the source filed them.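 The calls were made as follows: active = compounds giving half or more protection of infected cells from virus-caused growth loss, again on retest; inactive = the rest.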
Tested on: CEM cells HIV-1 protection, formazan growth assay
Assay: NCI AIDS Antiviral Assay
Details: for IC50: measured here: growth of uninfected CEM cells
In short: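 Category rules: moderately active means at least 50% protection on retest, and confirmed active means 100% protection reproducibly. The underlying data came from a formazan growth assay in HIV-1-infected CEM cells.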

**Q.** CC1=CC(S)NC(=S)N1 (stereo not given) was tested. Which EC50 did it give?
**A.** > 200 µM

**Q.** What about the IC50 of the same molecule?
**A.** > 200 µM

**Q.** For CC(C)CC(NC(=O)C(CCI)Cc1ccccc1)C(=O)Nc1ccccc1 (stereo not given), which EC50 is on record?
**A.** > 200 µM

**Q.** What about the IC50 of the same molecule?
**A.** 32.4 µM

**Q.** For COC1/C=C\OC2(C)Oc3c(C)c(O)c4c(O)c(c(/C=N\N5CCCC5)c(O)c4c3C2=O)NC(=O)/C(C)=C\C=C/C(C)C(O)C(C)C(O)C(C)C(OC(C)=O)C1C (stereo not given), which outcome is on record?
**A.** inactive

**Q.** How did the EC50 turn out when COC(=O)C1(Cc2ccc3c(c2)CCC3)Cc2ccccc2C1 was run?
**A.** > 200 µM

**Q.** What about the IC50 of the same molecule?
**A.** 35.5 µM

**Q.** For COc1cc2c(cc1OC)[C@H]1C(COC(=O)Nc3ccccc3)CN1CC2 (stereo not given in full), which EC50 is on record?
**A.** > 676 µM

**Q.** And the IC50?
**A.** 93.3 µM

**Q.** With COc1ccc(-c2cc(-c3ccccc3)c(C#N)c(=O)[nH]2)cc1 as the molecule, how does the EC50 read?
**A.** > 61.7 µM

**Q.** What about the IC50 of the same molecule?
**A.** > 61.7 µM

**Q.** COc1cc(Oc2nc3ccc(C(F)(F)F)cc3nc2-c2ccccc2)cc(OC)c1OC was tested. Which EC50 did it give?
**A.** > 93.3 µM

**Q.** What about the IC50 of the same molecule?
**A.** 57.5 µM

**Q.** For CC(C)OC1=C(CC2(C)OCCO2)C(=O)C12OCCO2, which EC50 is on record?
**A.** > 200 µM

**Q.** What about the IC50 of the same molecule?
**A.** > 200 µM

**Q.** Which results are given for CCC1(CC)C(=O)[N-]C(=O)[N-]C1=O.[Au+].[Au+].c1ccc([PH+](c2ccccc2)c2ccccc2)cc1.c1ccc([PH+](c2ccccc2)c2ccccc2)cc1?
**A.** EC50: > 6.61 µM; IC50: > 6.61 µM

**Q.** CC1=C[C@H]2C[C@@]3(C)O[C@@H]([C@]4(C)CC[C@H]([C@@H](C)C(=O)O)OO4)CC3C(C)(C)[C@H]2CC1 (stereo not given in full) was tested. Which outcome did it give?
**A.** inactive

**Q.** Which outcome does the source give for CCOC(=O)c1ccc(NC(=O)SCCC(=O)O)cc1 here?
**A.** inactive

**Q.** Which results are given for COc1c(Cl)cc(Cc2cc(Cl)c(OC)c([N+](=O)[O-])c2)cc1[N+](=O)[O-]?
**A.** EC50: > 200 µM; IC50: > 200 µM

**Q.** Which outcome does the source give for CCCCCCCCCCCCOC(=S)NC here?
**A.** inactive

**Q.** With O=C1C(=C2SC(c3ccccc3)(c3ccccc3)c3ccccc32)C(=O)c2ccccc21 as the molecule, how does the EC50 read?
**A.** > 200 µM

**Q.** And the IC50?
**A.** > 200 µM

**Q.** What does the source list for O=S(=O)(F)c1ccccc1C[P+](c1ccccc1)(c1ccccc1)c1ccccc1?
**A.** EC50: > 200 µM; IC50: 17.8 µM

**Q.** Which EC50 does the source give for Cn1c(-c2ccccc2)cc(-c2ccc3c(c2)OCO3)c1-c1ccsc1 here?
**A.** > 200 µM

**Q.** What about the IC50 of the same molecule?
**A.** > 200 µM

**Q.** CCOC(=O)c1ccc(NC(=O)Nc2ccc(Cl)cn2)cc1 was tested. Which EC50 did it give?
**A.** > 200 µM

**Q.** And the IC50?
**A.** > 200 µM

**Q.** Which EC50 does the source give for CNn1c(-c2ccc(C)cc2)n[nH]c1=O here?
**A.** 49 µM

**Q.** What about the IC50 of the same molecule?
**A.** 56.2 µM

**Q.** With COc1cc2cnc3c4cc(OCc5ccccc5)ccc4ccc3c2cc1OC as the molecule, how does the EC50 read?
**A.** > 6.61 µM

**Q.** What about the IC50 of the same molecule?
**A.** > 6.61 µM

**Q.** With O=C1CSC(=S)N1c1ccc2c(c1)OCO2 as the molecule, how does the EC50 read?
**A.** > 200 µM

**Q.** And the IC50?
**A.** 79.4 µM

**Q.** With COc1ccc(C/C(=N/O)C(=O)NCCc2cc(Br)c(OCCCN(C)C)c(Br)c2)cc1Br as the molecule, how does the outcome read?
**A.** inactive

**Q.** Which results are given for O=C1/C(=C/c2ccc3c(c2)OCO3)Sc2scc(-c3ccc(O)c(O)c3)[n+]21?
**A.** EC50: > 200 µM; IC50: 1.1 µM

**Q.** Which EC50 does the source give for CC12CCC(C(=Nc3ccc([N+](=O)[O-])cc3)C1=O)C2(C)C (stereo not given) here?
**A.** > 200 µM

**Q.** What about the IC50 of the same molecule?
**A.** 35.5 µM

**Q.** Which EC50 does the source give for CCN=C(N)C(C)SS(=O)(=O)O (stereo not given) here?
**A.** > 200 µM

**Q.** And the IC50?
**A.** 170 µM

**Q.** Which results are given for CCCCCCSc1nc(COC(=O)NC)c(COC(=O)NC)n1C?
**A.** EC50: > 200 µM; IC50: > 200 µM

**Q.** Which outcome does the source give for CCOC(=O)c1c2cccccc-2nc1Nc1cccc2c(C)ccnc12 here?
**A.** inactive

**Q.** Which results are given for Oc1cccc2c1N1CCN2CC1?
**A.** EC50: > 200 µM; IC50: > 200 µM

**Q.** Which results are given for c1ccc(P2c3ccccc3Oc3ccccc32)cc1?
**A.** EC50: > 200 µM; IC50: 35.5 µM

**Q.** Which results are given for O=C1Cc2c([nH]c3ccc(Br)cc23)-c2ccccc2N1?
**A.** EC50: > 200 µM; IC50: 2.95 µM

**Q.** For CCO/C=C/c1cc2c(c3c1-c1c(cc(OC)c(OC)c1OC)C3=O)OCO2, which EC50 is on record?
**A.** > 6.46 µM

**Q.** And the IC50?
**A.** > 6.46 µM

**Q.** With CCCN1CCC(=O)N(CCC(F)(F)C(F)(F)C(F)(F)C(F)(F)C(F)(F)C(F)(F)F)C1=S as the molecule, how does the EC50 read?
**A.** > 50.1 µM

**Q.** And the IC50?
**A.** > 50.1 µM

**Q.** Which EC50 does the source give for O=C(CCC(C(=O)OCc1ccccc1)C(=O)OCc1ccccc1)Nc1ccc(OCc2ccccc2)cc1 here?
**A.** > 200 µM

**Q.** And the IC50?
**A.** 107 µM

**Q.** What does the source list for CCn1c2cc(C)c(C)cc2nc2cc3c(cc21)c(Cl)c(=O)c1ccccc13?
**A.** EC50: > 200 µM; IC50: > 200 µM

**Q.** What does the source list for COc1ccc(CCCCl)c(C2=NCCc3cc(OC)c(OC)cc32)c1?
**A.** EC50: > 200 µM; IC50: 36.3 µM

**Q.** How did the EC50 turn out when Nc1nc(N)c(Br)c(Nc2ccc(Cl)c(Cl)c2)n1 was run?
**A.** 52.5 µM

**Q.** What about the IC50 of the same molecule?
**A.** 155 µM

**Q.** How did the EC50 turn out when CN1CC=C(c2cccn2C)CC1 was run?
**A.** > 200 µM

**Q.** What about the IC50 of the same molecule?
**A.** 132 µM

**Q.** COc1ccc(-c2nc(-c3cnccn3)n(Cc3ccccc3)n2)cc1 was tested. Which EC50 did it give?
**A.** 83.2 µM

**Q.** And the IC50?
**A.** > 200 µM

**Q.** O=C(NCCCNCCNC(=O)c1cc(-c2ccccc2)nc2ccccc12)c1cc(-c2ccccc2)nc2ccccc12 was tested. Which EC50 did it give?
**A.** > 20 µM

**Q.** What about the IC50 of the same molecule?
**A.** 3.02 µM

**Q.** Which results are given for CCC1C(c2cc(OC)c(OC)c(OC)c2)c2cc3c(cc2OC1N1CCCC1)OCO3 (stereo not given)?
**A.** EC50: > 200 µM; IC50: 1.12 µM

**Q.** How did the EC50 turn out when CC(=O)O[C@H]1CC[C@@]2(C)[C@H](CC[C@@H]3[C@@H]2CC[C@]2(C)[C@@H]4[C@H](C[C@@H]32)O[C@]2(CC[C@@H](C)CO2)[C@H]4C)C1 was run?
**A.** > 200 µM

**Q.** And the IC50?
**A.** > 200 µM

**Q.** How did the EC50 turn out when CCOC(=O)C(=[N+]=[N-])C(=O)CN1C(=O)c2ccccc2C1=O was run?
**A.** > 437 µM

**Q.** What about the IC50 of the same molecule?
**A.** > 437 µM

**Q.** With Nc1nc(N)nc(-c2cnccn2)n1 as the molecule, how does the EC50 read?
**A.** > 200 µM

**Q.** What about the IC50 of the same molecule?
**A.** > 200 µM

**Q.** Which EC50 does the source give for Oc1c(CN2CCCCC2)ccc2ccccc12 here?
**A.** > 200 µM

**Q.** What about the IC50 of the same molecule?
**A.** 186 µM

**Q.** How did the EC50 turn out when Cc1ccc(N2C(=O)/C(=C3\Sc4c(nc(C)[nH]c4=O)N3c3ccccc3)SC2=S)cc1 was run?
**A.** > 4.07 µM

**Q.** What about the IC50 of the same molecule?
**A.** > 4.07 µM

**Q.** Which EC50 does the source give for Cc1ccccc1SCc1nc2ccccc2c(C)[n+]1[O-] here?
**A.** 21.9 µM

**Q.** And the IC50?
**A.** 102 µM

**Q.** What does the source list for O=C(c1ccco1)N1CCCN(C(=O)c2ccco2)C1=S?
**A.** EC50: > 200 µM; IC50: 28.2 µM

**Q.** With O=C(NCCCN(CCCCN(CCCNC(=O)C(F)(F)F)Cc1ccc2ccccc2c1)Cc1ccc2ccccc2c1)C(F)(F)F as the molecule, how does the outcome read?
**A.** inactive

**Q.** For O=c1cc(CNC2CCCC2)[nH]c(=O)[nH]1, which outcome is on record?
**A.** inactive

**Q.** Clc1ccccc1C1=NN(c2ccccc2)C2c3cc(Br)ccc3OCC12 (stereo not given) was tested. Which EC50 did it give?
**A.** > 81.3 µM

**Q.** What about the IC50 of the same molecule?
**A.** > 81.3 µM

**Q.** What does the source list for CCc1ccccc1NC(=O)C(=O)CC(=O)c1sc(Nc2ccccc2Cl)nc1C?
**A.** EC50: > 200 µM; IC50: 87.1 µM

**Q.** How did the EC50 turn out when COC(=O)c1cc(=O)nc(N/N=C/c2ccccc2O)s1 was run?
**A.** > 85.1 µM

**Q.** And the IC50?
**A.** 57.5 µM

**Q.** With O=C(O)c1cccc(S(=O)(=O)NN2C(=O)CSC2c2c(O)ccc3ccccc23)c1 (stereo not given) as the molecule, how does the EC50 read?
**A.** > 200 µM

**Q.** What about the IC50 of the same molecule?
**A.** 29.5 µM

**Q.** For C=CC(C)(C)c1c(OC(C)=O)cc2oc3c(OC(C)=O)c(OC(C)=O)cc(CC=C(C)C)c3c(=O)c2c1O, which EC50 is on record?
**A.** > 200 µM

**Q.** What about the IC50 of the same molecule?
**A.** 120 µM

**Q.** How did the EC50 turn out when O=c1nc(-c2ccccc2)cc(CC(O)(c2ccc(C(F)(F)F)cc2)c2ccc(Cl)c(Cl)c2)[nH]1 (stereo not given) was run?
**A.** > 20 µM

**Q.** And the IC50?
**A.** > 20 µM

**Q.** CN1CN(c2ccccc2)C2(CCN(CC(C)(c3ccc(F)cc3)C3OCCCO3)CC2)C1=O (stereo not given) was tested. Which EC50 did it give?
**A.** > 200 µM

**Q.** What about the IC50 of the same molecule?
**A.** 107 µM

**Q.** CCC(Sc1cc(Cl)c(C)cc1S(=O)(=O)Nc1nc(N)nc(N(C)C)n1)C(=O)O (stereo not given) was tested. Which outcome did it give?
**A.** inactive

**Q.** What does the source list for CC(=O)NNc1nc(C)c(C(/C=C/c2ccc([N+](=O)[O-])cc2)=N/N)s1?
**A.** EC50: > 69.2 µM; IC50: > 69.2 µM

**Q.** For O=C1NC(O)c2cc(O)ccc2O1 (stereo not given), which EC50 is on record?
**A.** > 200 µM

**Q.** What about the IC50 of the same molecule?
**A.** 81.3 µM

**Q.** How did the EC50 turn out when O/N=C1/CCCC/C1=C/C=C/c1ccccc1 was run?
**A.** > 16.6 µM

**Q.** And the IC50?
**A.** > 16.6 µM

**Q.** Which results are given for CCOC(=O)C(C#N)C1=CC(=O)C(=O)c2ccc(O)cc21 (stereo not given)?
**A.** EC50: > 457 µM; IC50: 209 µM

**Q.** What does the source list for O=c1n(-c2ccccc2)c(=O)n2c(=O)n(-c3ccccc3)c(=O)n12?
**A.** EC50: > 100 µM; IC50: > 100 µM

**Q.** What does the source list for O=C(Cc1ccccc1)NN1C(=O)/C(=C\c2ccc([N+](=O)[O-])cc2)SC1=Nc1ccccc1?
**A.** EC50: > 56.2 µM; IC50: > 56.2 µM
